Results as given in the supplement of paper PMC10307832.

Assays:
Experiment in all cases: relative viability (nuclei count vs DMSO), 5 days (fraction); higher = more cells survive
[1] = test system: NCI-H460
How it was run: (§1)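 Five library-drug doses in √10 steps were combined with a fixed anchor-drug dose, or a single drug was given alone, by pin tool to lung cancer cell lines in 1536-well plates the day after seeding. Nuclei were stained and counted after 5 days. Relative viability is the nuclei count in treated wells over that in vehicle wells, taken as the median of duplicate plates.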

[2] = test system: RERF-LC-KJ
How it was run: as §1

[3] = test system: NCI-H650
How it was run: as §1

[4] = test system: NCI-H1793
How it was run: as §1

[5] = test system: SW 1573
How it was run: as §1

[6] = test system: NCI-H520
How it was run: as §1

[7] = test system: NCI-H838
How it was run: as §1

[8] = test system: EKVX
How it was run: as §1

[9] = test system: NCI-H2347
How it was run: as §1

[10] = test system: NCI-H1666
How it was run: as §1

[11] = test system: A-427
How it was run: as §1

[12] = test system: LCLC-97TM1
How it was run: as §1

[13] = test system: NCI-H1993
How it was run: as §1

[14] = test system: NCI-H23
How it was run: as §1

[15] = test system: NCI-H1915
How it was run: as §1

[16] = test system: LC-2-ad
How it was run: as §1

[17] = test system: BEN
How it was run: as §1

[18] = test system: LU99A
How it was run: as §1

[19] = test system: NCI-H1355
How it was run: as §1

[20] = test system: NCI-H1650
How it was run: as §1

[21] = test system: PC-3 [JPC-3]
How it was run: as §1

[22] = test system: NCI-H2228
How it was run: as §1

[23] = test system: LOU-NH91
How it was run: as §1

Cc1cnc(-c2cnc(NCCNc3ccc(C#N)cn3)nc2-c2ccc(Cl)cc2Cl)[nH]1 + CS(=O)(=O)N1CCN(Cc2cc3nc(-c4cccc5[nH]ncc45)nc(N4CCOCC4)c3s2)CC1 [Pictilisib] (partner 1 µM)
relative viability ([1]; first compound 0.08 µM): 0.243
relative viability ([1]; first compound 0.253 µM): 0.378
relative viability ([1]; first compound 0.8 µM): 0.318
relative viability ([1]; first compound 2.53 µM): 0.504
relative viability ([2]; first compound 0.08 µM): 0.662
relative viability ([2]; first compound 0.253 µM): 0.496
relative viability ([2]; first compound 0.8 µM): 0.497
relative viability ([2]; first compound 2.53 µM): 0.548
relative viability ([3]; first compound 0.08 µM): 0.936
relative viability ([3]; first compound 0.253 µM): 1.03
relative viability ([3]; first compound 0.8 µM): 0.916
relative viability ([3]; first compound 2.53 µM): 0.873
relative viability ([4]; first compound 0.08 µM): 0.315
relative viability ([4]; first compound 0.253 µM): 0.351
relative viability ([4]; first compound 0.8 µM): 0.412
relative viability ([4]; first compound 2.53 µM): 0.596
relative viability ([5]; first compound 0.08 µM): 0.487
relative viability ([5]; first compound 0.253 µM): 0.492
relative viability ([5]; first compound 0.8 µM): 0.552
relative viability ([5]; first compound 2.53 µM): 0.327
relative viability ([6]; first compound 0.08 µM): 0.286
relative viability ([6]; first compound 0.253 µM): 0.336
relative viability ([6]; first compound 0.8 µM): 0.346
relative viability ([6]; first compound 2.53 µM): 0.497
relative viability ([7]; first compound 0.08 µM): 0.525
relative viability ([7]; first compound 0.253 µM): 0.552
relative viability ([7]; first compound 0.8 µM): 0.737
relative viability ([7]; first compound 2.53 µM): 1.19
relative viability ([8]; first compound 0.08 µM): 0.462
relative viability ([8]; first compound 0.253 µM): 0.394
relative viability ([8]; first compound 0.8 µM): 0.374
relative viability ([8]; first compound 2.53 µM): 0.392
relative viability ([9]; first compound 0.08 µM): 0.931
relative viability ([9]; first compound 0.253 µM): 0.416
relative viability ([9]; first compound 0.8 µM): 0.698
relative viability ([9]; first compound 2.53 µM): 0.6
relative viability ([10]; first compound 0.08 µM): 0.434
relative viability ([10]; first compound 0.253 µM): 0.295
relative viability ([10]; first compound 0.8 µM): 0.332
relative viability ([10]; first compound 2.53 µM): 0.589
relative viability ([11]; first compound 0.08 µM): 0.758
relative viability ([11]; first compound 0.253 µM): 0.705
relative viability ([11]; first compound 0.8 µM): 0.696
relative viability ([11]; first compound 2.53 µM): 0.619
relative viability ([12]; first compound 0.08 µM): 0.231
relative viability ([12]; first compound 0.253 µM): 0.234
relative viability ([12]; first compound 0.8 µM): 0.158
relative viability ([12]; first compound 2.53 µM): 0.172
relative viability ([13]; first compound 0.08 µM): 0.92
relative viability ([13]; first compound 0.253 µM): 0.911
relative viability ([13]; first compound 0.8 µM): 0.87
relative viability ([13]; first compound 2.53 µM): 0.806
relative viability ([14]; first compound 0.08 µM): 0.511
relative viability ([14]; first compound 0.253 µM): 0.56
relative viability ([14]; first compound 0.8 µM): 0.535
relative viability ([14]; first compound 2.53 µM): 0.613
relative viability ([15]; first compound 0.08 µM): 0.958
relative viability ([15]; first compound 0.8 µM): 0.939
relative viability ([15]; first compound 2.53 µM): 1.01
relative viability ([16]; first compound 0.08 µM): 0.489
relative viability ([16]; first compound 0.8 µM): 0.441
relative viability ([16]; first compound 2.53 µM): 0.468
relative viability ([17]; first compound 0.08 µM): 0.572
relative viability ([17]; first compound 0.253 µM): 0.596
relative viability ([17]; first compound 0.8 µM): 0.612
relative viability ([17]; first compound 2.53 µM): 0.648
relative viability ([18]; first compound 0.08 µM): 0.314
relative viability ([18]; first compound 0.253 µM): 0.348
relative viability ([18]; first compound 0.8 µM): 0.348
relative viability ([18]; first compound 2.53 µM): 0.41
relative viability ([19]; first compound 0.08 µM): 0.442
relative viability ([19]; first compound 0.253 µM): 0.366
relative viability ([19]; first compound 0.8 µM): 0.399
relative viability ([19]; first compound 2.53 µM): 0.542
relative viability ([20]; first compound 0.08 µM): 0.682
relative viability ([20]; first compound 0.253 µM): 0.595
relative viability ([20]; first compound 0.8 µM): 0.518
relative viability ([20]; first compound 2.53 µM): 0.597
relative viability ([21]; first compound 0.08 µM): 0.772
relative viability ([21]; first compound 0.253 µM): 0.666
relative viability ([21]; first compound 0.8 µM): 0.798
relative viability ([21]; first compound 2.53 µM): 0.79
relative viability ([22]; first compound 0.08 µM): 0.263
relative viability ([22]; first compound 0.253 µM): 0.229
relative viability ([22]; first compound 0.8 µM): 0.569
relative viability ([22]; first compound 2.53 µM): 0.287
relative viability ([23]; first compound 0.08 µM): 0.532
relative viability ([23]; first compound 0.253 µM): 0.531
relative viability ([23]; first compound 0.8 µM): 0.504
relative viability ([23]; first compound 2.53 µM): 0.564
